In patent publication US10683269B2 (MISSION THERAPEUTICS LIMITED, priority 2016, dated 2020):

Target: T1, USP7 (Homo sapiens, UniProt Q93009)
T1 construct: The USP7 construct was PCR amplified and cloned into a pFLAG-CMV-6a vector (Sigma-Aldrich) with an N-terminal FLAG tag; made in house; host or cells: HEK293T
Experiment: USP7 biochemical IC50 assay (fluorescence polarisation, TAMRA labelled peptide linked to ubiquitin via an iso-peptide bond)
Settings: 30 min pre-incubation of enzyme and compound, read after 2 hr incubation at room temperature, read-out: IC50 range
Experimental: In Vitro USP7 Inhibition Assay
Expression and Purification of USP7
The USP7 construct was PCR amplified and cloned into a pFLAG-CMV-6a vector (Sigma-Aldrich) with an N-terminal FLAG tag. HEK293T cells were transfected with FLAG-USP7 using TransIT-LT1 transfection reagent (Mirus) according to the manufacturer's instructions. Cells were harvested 40 hours after transfection. […] The resin was washed two times with low salt buffer plus protease inhibitors (complete mini, Roche) and phosphatase inhibitors (PhosSTOP mini, Roche) and one time with high salt buffer (20 mM Tris, pH 7.5, 500 mM NaCl, 0.5 mM EDTA, 5 mM beta-mercaptoethanol, protease inhibitors (complete mini, Roche) and phosphatase inhibitors (PhosSTOP mini, Roche). To elute the bound USP7, elution buffer (10 mM Tris, pH 7.5, 150 mM NaCl, 0.5 mM EDTA, 10% glycerol, 0.5% NP40, 5 mM beta-mercaptoethanol, 0.15 mg/ml 3×FLAG peptide (Sigma-Aldrich)) was added to the resin and incubated at 4° C. for 2.5 hours rotating. The resin was centrifuged at 4000 rpm for 30 seconds, and the supernatant containing purified FLAG-USP7 was removed and stored at −80° C.
USP7 Biochemical IC50 Assay
A typical 8-point dilution series would be 100, 30, 10, 3, 1, 0.3, 0.1, 0.03 μM final. […] Either 1 μl of 50% DMSO or diluted compound was added to the plate. USP7 was diluted in reaction buffer (20 mM Tris, pH 7.5, 100 mM NaCl, 0.05% Tween 20, 0.5 mg/ml BSA, 5 mM—beta mercaptoethanol) to the equivalent of 0.0025 μl/well and 10 μl of diluted USP7 was added to the compound. Enzyme and compound were incubated for 30 min at room temp. Reactions were initiated by the addition of 50 nM of TAMRA labelled peptide linked to ubiquitin via an iso-peptide bond as fluorescence polarisation substrate. Reactions were read immediately after addition of substrate and following a 2 hr incubation at room temperature. Readings were performed on a Pherastar Plus (BMG Labtech). λ Excitation 540 nm; λ Emission 590 nm.

T1 sequence (Q93009 whole entry): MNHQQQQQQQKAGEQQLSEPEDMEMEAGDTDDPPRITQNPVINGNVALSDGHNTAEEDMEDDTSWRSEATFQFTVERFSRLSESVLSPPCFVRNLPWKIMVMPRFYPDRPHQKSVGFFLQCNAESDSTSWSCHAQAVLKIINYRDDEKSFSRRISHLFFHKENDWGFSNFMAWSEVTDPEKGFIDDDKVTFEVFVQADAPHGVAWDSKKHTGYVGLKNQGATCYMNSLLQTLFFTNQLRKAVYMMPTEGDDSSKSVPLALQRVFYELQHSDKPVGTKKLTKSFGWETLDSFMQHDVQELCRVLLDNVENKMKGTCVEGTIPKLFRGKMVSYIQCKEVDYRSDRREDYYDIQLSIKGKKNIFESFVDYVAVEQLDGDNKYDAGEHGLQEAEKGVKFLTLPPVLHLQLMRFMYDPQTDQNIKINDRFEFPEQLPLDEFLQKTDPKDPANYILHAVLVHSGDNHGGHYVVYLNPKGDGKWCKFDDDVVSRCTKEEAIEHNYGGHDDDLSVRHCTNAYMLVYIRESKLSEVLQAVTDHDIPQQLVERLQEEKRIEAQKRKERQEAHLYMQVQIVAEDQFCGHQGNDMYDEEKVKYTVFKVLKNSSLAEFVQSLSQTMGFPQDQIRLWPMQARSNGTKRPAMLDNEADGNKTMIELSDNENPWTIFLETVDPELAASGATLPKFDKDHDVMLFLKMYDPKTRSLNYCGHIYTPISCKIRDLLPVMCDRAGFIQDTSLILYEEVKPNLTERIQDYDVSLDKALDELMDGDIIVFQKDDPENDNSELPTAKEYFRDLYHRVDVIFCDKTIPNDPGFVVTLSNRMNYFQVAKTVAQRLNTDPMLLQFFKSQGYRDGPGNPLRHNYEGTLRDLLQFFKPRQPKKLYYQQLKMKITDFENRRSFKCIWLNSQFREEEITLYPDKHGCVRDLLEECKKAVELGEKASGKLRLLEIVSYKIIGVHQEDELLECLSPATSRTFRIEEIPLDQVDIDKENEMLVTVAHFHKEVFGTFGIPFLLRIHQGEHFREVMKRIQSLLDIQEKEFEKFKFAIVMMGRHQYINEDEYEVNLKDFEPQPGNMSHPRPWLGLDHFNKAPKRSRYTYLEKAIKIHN

Row | SMILES | IC50 [µM]
1 | N#CN1Cc2cccc(-c3ccccc3C(=O)N3CCNCC3)c2C1 [Example 78, 4-(2-(piperazine-1-carbonyl)phenyl)isoindoline-2-carbonitrile] | 1 to 10
2 | C[C@H](O)c1ccccc1-c1cccc2c1CN(C#N)C2 [Example 71, (S)-4-(2-(1-hydroxyethyl)phenyl)isoindoline-2-carbonitrile] | 1 to 10
3 | COc1ccccc1-c1nc2c(c(N3CCc4ccccc4C3)n1)CN(C#N)C2 [Example 140, 4-(3,4-dihydroisoquinolin-2(1H)-yl)-2-(2-methoxyphenyl)-5,7-dihydro-6H-pyrrolo[3,4-d]pyrimidine-6-carbonitrile] | 1 to 10
4 | N#CN1Cc2cccc(NC(=O)c3ccc(S(=O)(=O)Nc4ccccc4)cc3)c2C1 [Example 92, N-(2-cyanoisoindolin-4-yl)-4-(N-phenylsulfamoyl)benzamide] | 1 to 10
5 | CN(C)CC(=O)Nc1cc2c(c(-c3ccc(C#N)cc3)c1)CN(C#N)C2 [Example 267, N-(2-cyano-7-(4-cyanophenyl)isoindolin-5-yl)-2-(dimethylamino)acetamide] | < 1
6 | N#Cc1cc(-n2ccnc2)ccc1-c1cccc2c1CN(C#N)C2 [Example 181, 4-(2-cyano-4-(1H-imidazol-1-yl)phenyl)isoindoline-2-carbonitrile] | 1 to 10
7 | N#CN1Cc2cccc(NC(=O)c3cccc(NC(=O)c4ccccc4)c3)c2C1 [Example 90, 3-benzamido-N-(2-cyanoisoindolin-4-yl)benzamide] | 1 to 10
8 | Cn1cc(CNc2nc3c(c(N4CCc5ccccc5C4)n2)CN(C#N)C3)cn1 [Example 201, 4-(3,4-dihydroisoquinolin-2(1H)-yl)-2-(((1-methyl-1H-pyrazol-4-yl)methyl)amino)-5,7-dihydro-6H-pyrrolo[3,4-d]pyrimidine-6-carbonitrile] | 1 to 10
9 | CC(=O)NCc1cc2c(c(-c3ccccc3C#N)c1)CN(C#N)C2 [Example 225, N-((2-cyano-7-(2-cyanophenyl)isoindolin-5-yl)methyl)acetamide] | 1 to 10
10 | N#CN1Cc2nc(NC3CCCc4ccccc43)nc(-c3ccccc3)c2C1 (centres unmarked) [Example 115, 4-phenyl-2-((1,2,3,4-tetrahydronaphthalen-1-yl)amino)-5,7-dihydro-6H-pyrrolo[3,4-d]pyrimidine-6-carbonitrile] | 10 to 30
11 | CNC(=O)NCc1cc2c(c(-c3ccc(C#N)cc3)c1)CN(C#N)C2 [Example 227, 1-((2-cyano-7-(4-cyanophenyl)isoindolin-5-yl)methyl)-3-methylurea] | < 1
12 | N#CN1Cc2cccc(-c3cccc(C(=O)NCc4ccccc4)c3)c2C1 [Example 73, N-benzyl-3-(2-cyanoisoindolin-4-yl)benzamide] | 1 to 10
13 | CN(C)C(=O)Cc1cc2c(c(-c3ccccc3)c1)CN(C#N)C2 [Example 251, 2-(2-cyano-7-phenylisoindolin-5-yl)-N,N-dimethylacetamide] | 1 to 10
14 | Cc1nc2ccc(-c3cc(NC(=O)[C@@H]4CCCN(C)C4)cc4c3CN(C#N)C4)cc2o1 [Example 35, (R)-N-(2-cyano-7-(2-methylbenzo[d]oxazol-6-yl)isoindolin-5-yl)-1-methylpiperidine-3-carboxamide] | < 1
15 | N#CN1Cc2nc(NCc3ccco3)nc(-c3ccccc3)c2C1 [Example 121, 2-((furan-2-ylmethyl)amino)-4-phenyl-5,7-dihydro-6H-pyrrolo[3,4-d]pyrimidine-6-carbonitrile] | 10 to 30
16 | CNC(=O)c1cc2c(c(-c3ccc(C#N)cc3)c1)CN(C#N)C2 [Example 237, 2-cyano-7-(4-cyanophenyl)-N-methylisoindoline-5-carboxamide] | 1 to 10
17 | CS(=O)(=O)Nc1cc2c(c(-c3ccc(C#N)cc3C#N)c1)CN(C#N)C2 [Example 243, N-(2-cyano-7-(2,4-dicyanophenyl)isoindolin-5-yl)methanesulfonamide] | 1 to 10
